Test results: patent US20190290656A1, “PT(IV) PRODRUGS” (YISSUM RESEARCH DEVELOPMENT COMPANY OF THE HEBREW …, priority 2015, published 2019)

How the values were obtained:
2008 cells = test: Glycolysis (Mito-ID O2 sensor), 2008; assay type: cell-based, human; settings: IC50 concentrations, 24 h
Description: Glycolysis. The cellular glycolytic activity was assessed using the Mito-ID® O2 Extracellular Sensor Kit according to the manufacturer's instructions (Enzo Life Sciences, Farmingdale, N.Y.). Briefly, PSN-1 cells (15·10^3 per well) were seeded in 96-well plates. After 24 h, cells were treated with Mito-ID® O2 Sensor Probe Solution containing the tested compounds at the appropriate concentration. Fluorescence was estimated using a plate reader (Fluoroskan Ascent FL, Labsystem, Finland) at 350 nm (excitation) and 610 nm (emission).
Based on the above findings, we investigated the effects determined by derivatives 3a and 3b on 2008 and PSN-1 cancer cell aerobic glycolysis and mitochondria function.
However, these effects were magnified in PSN-1 cells, having reduction of cellular glycolytic activity of about 36 and 20% for 3a and 3b, respectively. […] This latter result could be explained tacking into consideration that the reference compound [Pt(DACH)(56Phen)] itself, that is also released upon reduction of 3a and 3b, is effective in hampering cellular glycolysis in both tested cancer cell lines. The difference between 3a and 3b might be attributed to the added effect of DCA.

PSN-1 cells = test: Mitochondrial membrane potential (Mito-ID), PSN-1; assay type: cell-based, human; settings: 12 h of incubation
Description: Mitochondrial membrane potential (ΔΨ). ΔΨ was assayed using the Mito-ID Membrane Potential Kit according to the manufacturer's instructions (Enzo Life Sciences, Farmingdale, N.Y.). Briefly, 2008 and PSN1 cells were seeded onto 96-well microplates at 5.10^4 cells/well. After 24 h, cells were treated with tested compounds for 6, 12 and 24 h. The mitochondrial depolarizing agent, carbonyl cyanide 3-chlorophenylhydrazone (CCCP) was employed as positive control. An equal volume of cationic dye loading solution was added to each well and cell plates were incubated for additional 30 min at 37° C. Plates were read at excitation/emission wavelengths 490 and 590 nm using a fluorescence microplate reader (Fluoroskan Ascent FL, Labsystem, Finland).
In addition, it is interesting to note that treatment of 2008 and PSN-1 cells with 3a and 3b determined a significant time-dependent increase in the number of cells with depolarized mitochondria (data not shown). In particular, after 12 h of incubation, 3a elicited an increase of about 39% of PSN-1 cells with depolarized mitochondrial potential FIG. 12B). Again, the reference compound [Pt(DACH)(56Phen)] was effective in hampering cellular mitochondrial membrane potential in both tested cancer cell lines.

[1] = Cyclic voltammetric measurements; assay type: physicochemical; settings: cyclic voltammetry
Description: Finally, units 1a and 2a (Scheme 4) were used for the formation of a peptide bond, to afford 3a. DMSO turned out to be a good solvent for this reaction, although DMF also afforded good results. ^1H NMR assignments for 1a, 2a, and 3a (Scheme 4) are summarized in Table 4. Cylic voltammetric measurements (CV) were performed on complex 3a and 3b finding Ep values of −0.462 and −0.058 V. The first reduction peak was assigned to the reduction of the cisplatin-derivative portion of the dinuclear complex, because of similarity with the values reported for similar complexes. The less negative reduction peak was assigned to the Pt-Phenantroline metal center, because of similarity to the values reported for the bis axial phenylbutyrato Pt(IV) complex Pt56MeSS(PhB)2.

[2] = Stability in phosphate buffer (NMR); assay type: physicochemical; settings: phosphate buffer pH 7, 37° C.
Description: A solution 2.0 mM of 3a (Scheme 4) in sodium phosphate buffer (50 mM, pH=7) was kept at 37° C. for 3 days. NMR and HPLC measurements were performed every day.
A 2.0 mM solution of 3a in phosphate buffer at pH=7 was kept at 37° C. in order to assay its stability by mean of NMR spectroscopy (FIG. 7). […] The signal at 7.40 ppm was assigned to the amidic proton. The signals at 7.18 and 6.48 belong to the aromatic ring of the coordinated phenylbutyrate. The large difference in chemical shifts between the 2 ortho protons of the phenyl ring and the 3 meta and para protons, coupled with the unusually low chemical shifts for the aromatic ortho protons, indicates a strong intramolecular interaction with the phenanthroline. Finally, the peak at 6.37 belongs to the coordinated DCA.

[3] = test system: six human cancer cell lines; test: MTT cytotoxicity, over six human cancer cell lines; assay type: cell-based; settings: on average over tested cell lines
Description: MTT assay. […] Triplicate cultures were established for each treatment.
The two dimers, 3a and 3b, as well as compounds 1a and 2a were screened against six human cancer cell lines representative of lung (H157), colon (HCT-15), cervical (A431), ovarian (2008) and pancreatic (PSN1) cancers, along with melanoma (A375). Cytotoxicity was evaluated by means of the MTT test after 72 h of treatment and the in vitro antitumor potential of newly synthesized derivatives was compared to that of the reference metallo-drugs CDDP and OXP.

A2780 cells = test: MTT cytotoxicity assay, A2780; assay type: cell-based, human; settings: A2780, 72 h exposure, MTT; read-out: IC50 (median growth inhibitory concentration)
Description: Platinum(IV) complexes were dissolved in DMSO to stock solutions of 1 mg/mL just before the experiment, and a calculated amount of drug solution was added to the cell growth medium to a final solvent concentration of 0.5%, which had no discernible effect on cell killing. Cisplatin (CDDP) and oxaliplatin (OXP) were dissolved just before the experiment in a 0.9% NaCl solution.
(§1) Human prostate adenocarcinoma (PC3) cells were obtained from European Collection of Cell Cultures (ECACC, Salisbury, UK). Human ovarian cancer cell lines A2780 and its cisplatin resistant variant, A2780cisR, were kindly provided by Prof.
Cancer Res. 1988, 48, 589-601]. […] Triplicate cultures were established for each treatment.

[4] = test system: Lewis lung carcinoma (LLC); test: In vivo efficacy study, Lewis lung carcinoma mouse model; parameters: species or system C57BL mice; settings: day 7-14
Description: A preliminary in vivo efficacy study was carried out on a mouse model (see Table 3 below):
Lewis lung carcinoma (LLC) was implanted i.m. (2·10^6 cells inoculum) into the right hind leg of 8-week old inbred C57BL mice (24±3 g body weight). Chemotherapy was delayed until the tumor became visible (day 7).

PC3 cells = test: MTT cytotoxicity assay, PC3; assay type: cell-based, human; settings: PC3, 72 h exposure, read-out: IC50 (median growth inhibitory concentration)
Description: (§2) Cisplatin (CDDP) and oxaliplatin (OXP) were dissolved just before the experiment in a 0.9% NaCl solution.
as §1
(§3) Triplicate cultures were established for each treatment.

A549 cells = test: MTT cytotoxicity assay, A549; assay type: cell-based, human; settings: A549, 72 h exposure, MTT; read-out: IC50 (median growth inhibitory concentration)
Description: as §2, §1, §3

| Compound | reduction of glycolysis processes compared with untreated control cells (2008 cells) | increase of cells with depolarized mitochondrial potential (PSN-1 cells) | Ep, first reduction peak (cisplatin-derivative portion) [1] [V] | Ep, less negative reduction peak (Pt-Phenantroline metal center) [1] [V] | Pt(IV)-phen reduced ([2]; after 2 days) | Pt(IV)-phen reduced ([2]; after 3 days) [%] | Pt(IV)-cisPt NMR signal (1101 ppm) relative to Pt(IV)-phen signal (703 ppm) ([2]; after a day) [%] | Pt(IV)-phen reduced ([2]; after one day) | times more potent than compound 3b [3] | IC50 (A2780 cells) [nM] | Average tumor weight (mean ± SD, g) ([4]; daily dose 1.5 mg kg^-1 i.p.) [g] | Inhibition of tumor growth (%) ([4]; daily dose 1.5 mg kg^-1 i.p.) | Average tumor weight (mean ± SD, g) ([4]; daily dose 3 mg kg^-1 i.p.) [g] | Inhibition of tumor growth (%) ([4]; daily dose 3 mg kg^-1 i.p.) | IC50 (PC3 cells) [nM] | IC50 (A549 cells) [nM] |
| --- | --- | --- | --- | --- | --- | --- | --- | --- | --- | --- | --- | --- | --- | --- | --- | --- |
| c,c,t,t,c,c-[(DACH)(56Phen)(PhBu)Pt(μ-OOC—(CH2)2—CONH(CH2)3COO)—Pt(DCA)(NH3)2 (Cl2)](TFA)2 [Compound 3a] | about 25% | about 39% | −0.462 | −0.058 | about 9% | 10 | 15 | approximately 6.5% | about 12 fold |  |  |  |  |  |  |  |
| [NH2][Pt]([NH2])([Cl])[Cl] [CDDP, Cisplatin, reference compound] |  |  |  |  |  |  |  |  |  | 2800 ± 200 | 0.150 ± 0.07 | 73.35 | 0.044 ± 0.07 | 92.18 | 2250 ± 820 | 8350 ± 870 |
